Measured values from patent US6710044B2, “Technical field” (NeuroSearch A/S, priority 1996, dated 2004).

How the values were obtained:
[1] = biological target: benzodiazepine receptor sites (GABAA receptor complex); assay: In vitro inhibition of 3H-flunitrazepam (3H-FNM) binding, cerebral cortex membranes; conditions: inhibition of specific binding of 3H-FNM (1 nM), rat cerebral cortex membranes, 40 min at 2° C.
Description: The affinity of various potential ligands for the benzodiazepine receptor sites can thus be evaluated by estimating the ability of test compounds to displace ^3H-flunitrazepam.
Tissue Preparation: Preparations are performed at 0-4° C. unless otherwise indicated.
Cerebral cortex from male Wistar rats (150-200 g) is homogenized for 5-10 sec in 20 ml Tris-HCl (30 mM, pH 7.4) using an Ultra-Turrax homogenizer. The suspension is centrifuged at 27,000×g for 15 min, and the pellet is washed three times with buffer (centrifuged at 27,000×g for 10 min). The washed pellet is homogenized in 20 ml of buffer and incubated on a water bath (37° C.) for 30 min to remove endogenous GABA and then centrifuged for 10 min at 27,000×g. The pellet is then homogenized in buffer and centrifuged for 10 min at 27,000×g. The final pellet is resuspended in 30 ml buffer and the preparation is frozen and stored at −20° C.
Assay: The membrane preparation is thawed and centrifuged at 2° C. for 10 min at 27,000×g. The pellet is washed twice with 20 ml 50 mM Tris-citrate, pH 7.1 using an Ultra-Turrax homogenizer and centrifuged for 10 min at 27,000×g. The final pellet is resuspended in 50 mM Tris-citrate, pH 7.1 (500 ml buffer per g of original tissue), and then used for binding assays. Aliquots of 0.5 ml tissue are added to 25 μl of test solution and 25 μl of ^3H-FNM (1 nM, final concentration), mixed and incubated for 40 min at 2° C. Non-specific binding is determined using clonazepam (1 μM, final concentration). After incubation the samples are added 5 ml of ice-cold buffer and poured directly onto Whatman GF/C glass fibre filters under suction and immediately washed with 5 ml ice-cold buffer. The amount of radioactivity on the filters is determined by conventional liquid scintillation counting. Specific binding is total binding minus non-specific binding.
The test value is calculated as the IC50 (the concentration (nM) of the test substance which inhibits the specific binding of ^3H—FNM by 50%).

Compound	melting point	IC50 [1]
CCON=C(C)c1ccc2c(c1)ncn2-c1cccc(C2CCCN(C)C2)c1.Cl (stereo not drawn) [compound 3f7, 5-acetyl-1-(3-(1-methylpiperidin-3-yl)phenyl)benzimidazole O-ethyl oxime hydrochloride]	112 to 114 °C	0.018 µM
CN1CCCC(c2cccc(-n3cnc4cc(C(=O)OCc5cccnc5)ccc43)c2)C1 (stereo not drawn) [compound 4h, 5-(3-Picolyloxycarbonyl)-1-(3-(1-methylpiperidin-3-yl)phenyl)benzimidazole]		0.08 µM
N#Cc1ccc2c(c1)ncn2-c1cccc(N2CCCC2)c1 [compound 3a2, 5-Cyano-1-(3-(1-pyrrolidinyl)phenyl)benzimidazole]	171 to 172 °C	0.041 µM
CN1CCCC(c2cccc(-n3cnc4cc(C=NO)ccc43)c2)C1 (stereo not drawn) [compound 3b4, 5-Formyl-1-(3-(1-methyl-3-piperidinyl)phenyl)benzimidazole oxime]	214 to 218 °C	0.004 µM
CCOC(=O)c1cccc(-n2cnc3cc(-c4ccno4)ccc32)c1 [compound 6a2, 5-(5-Isoxazolyl)-1-(3-ethoxycarbonyl)phenyl benzimidazole]	156 to 157 °C	0.003 µM
CCOC(=O)C(=CN1CCN(c2cccc(-n3cnc4cc(-c5ccoc5)ccc43)c2)CC1)C(=O)OCC [compound 6c6, 5-(3-Furanyl)-1-(3-(4-(2,2-bis(ethoxycarbonyl)ethenyl)piperazin-1-yl)phenyl)-benzimidazole]	97 to 102 °C	0.007 µM
O=C(OCc1ccccn1)c1cccc(-n2cnc3cc(-c4ccccc4)ccc32)c1 [compound 6b3, 5-Phenyl-1-(3-(2-picolyloxycarbonyl)phenyl)benzimidazole]	149 to 150 °C	0.008 µM
OCCN1CCN(c2cccc(-n3cnc4cc(-c5ccoc5)ccc43)c2)CC1 [compound 3i3, 5-(3-Furanyl)-1-(3-(4-(2-hydroxyethyl)piperazin-1-yl)phenyl)benzimidazole]	137 to 140 °C	0.005 µM
CCOC(=O)c1ccc2c(c1)ncn2-c1cccc(N2CCN(CC(=O)OC)CC2)c1.Cl [compound 4a5, 5-(Ethoxycarbonyl)-1-(3-(4-(methoxycarbonylmethyl)piperazin-1-yl)phenyl)-benzimidazole, hydrochloride]	185 to 186 °C	0.05 µM
COC(=O)CON=C(C)c1ccc2c(c1)ncn2-c1cccc(N2CCN(CCO)CC2)c1 [compound 5c1, 5-Acetyl-1-(3-(4-(2-hydroxyethyl)piperazin-1-yl)phenyl)benzimidazole O-(methoxy-carbonylmethyl) oxime]	117 to 119 °C	0.019 µM
COC(=O)Cc1ccc2c(c1)ncn2-c1cccc(N2CCN(C)CC2)c1.Cl [compound 4l1, 5-(Methoxycarbonylmethyl)-1-(3-(4-methylpiperazin-1-yl)phenyl)benzimidazole, hydrochloride]	140 to 142 °C	0.025 µM
